Experimental data published in PubChem BioAssay AID2060497 (Molecular Pharmacology Branch, DTP, NCI, 2025).

System: 317291-083-R-J1-PDC complex spheroids, viability
Experiment: Anticancer human tumor 317291-083-R-J1-PDC patient-derived soft tissue sarcoma cell line growth inhibition [GQUAD]
Conditions: for IC50: curve of first compound; for viability, T/C: stronger effect = lower value
Outline: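 Viability of tumor cells grown as complex spheroids with endothelial and stromal cells, exposed to drug combinations. Top concentration at or near clinical Cmax (else 10 microM), diluted in half-log increments.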

[1] = second compound 0.0316 µM, first compound 0.0316 µM
[2] = second compound 0.0316 µM, first compound 0.1 µM
[3] = second compound 0.0316 µM, first compound 0.316 µM
[4] = second compound 0.0316 µM, first compound 1 µM
[5] = second compound 0.0316 µM, first compound 3.16 µM
[6] = second compound 0.0316 µM, first compound 10 µM
[7] = second compound 0.1 µM, first compound 0.0316 µM
[8] = second compound 0.1 µM, first compound 0.1 µM
[9] = second compound 0.1 µM, first compound 0.316 µM
[10] = second compound 0.1 µM, first compound 1 µM
[11] = second compound 0.1 µM, first compound 3.16 µM
[12] = second compound 0.1 µM, first compound 10 µM
[13] = second compound 0.316 µM, first compound 0.0316 µM
[14] = second compound 0.316 µM, first compound 0.1 µM
[15] = second compound 0.316 µM, first compound 0.316 µM
[16] = second compound 0.316 µM, first compound 1 µM
[17] = second compound 0.316 µM, first compound 3.16 µM
[18] = second compound 0.316 µM, first compound 10 µM
[19] = second compound 1 µM, first compound 0.0316 µM
[20] = second compound 1 µM, first compound 0.1 µM
[21] = second compound 1 µM, first compound 0.316 µM
[22] = second compound 1 µM, first compound 1 µM
[23] = second compound 1 µM, first compound 3.16 µM
[24] = second compound 1 µM, first compound 10 µM
[25] = second compound 3.16 µM, first compound 0.0316 µM
[26] = second compound 3.16 µM, first compound 0.1 µM
[27] = second compound 3.16 µM, first compound 0.316 µM
[28] = second compound 3.16 µM, first compound 1 µM
[29] = second compound 3.16 µM, first compound 3.16 µM
[30] = second compound 3.16 µM, first compound 10 µM
[31] = second compound 10 µM, first compound 0.0316 µM
[32] = second compound 10 µM, first compound 0.1 µM
[33] = second compound 10 µM, first compound 0.316 µM
[34] = second compound 10 µM, first compound 1 µM
[35] = second compound 10 µM, first compound 3.16 µM
[36] = second compound 10 µM, first compound 10 µM
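Also: spheroids exposed to compounds for one week before readout.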
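For viability, T/C in this document: percent viability relative to DMSO vehicle wells taken as 100%.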

`COc1cccc2c1C(=O)c1c(O)c3c(c(O)c1C2=O)CC(O)(C(=O)CO)CC3OC1CC(N)C(O)C(C)O1` (stereo unspecified) + Cc1cnc(CNC(=O)c2c(=O)c3ccc(N4CCCN(C)CC4)nc3n3c2sc2ccccc23)cn1 was tested, and the IC50 (second compound 0.0316 µM) was 72.5 nM, the IC50 (second compound 0.1 µM) was 47.1 nM and the IC50 (second compound 0.316 µM) was < 31.6 nM. The IC50 (second compound 1 µM) was < 31.6 nM, the IC50 (second compound 3.16 µM) was < 31.6 nM and the IC50 (second compound 10 µM) was < 31.6 nM. It also gave a viability, T/C [1] of 84%, a viability, T/C [2] of 34% and a viability, T/C [3] of 21.1%. The viability, T/C [4] was 10.7%, the viability, T/C [5] was 1.84% and the viability, T/C [6] was 4.21%. For the same compound, the viability, T/C [7] was 62.7%, the viability, T/C [8] was 24% and the viability, T/C [9] was 18.2%. The viability, T/C [10] was 8.39%, the viability, T/C [11] was 3.34% and the viability, T/C [12] was 2.66%. For the same compound, the viability, T/C [13] was 45.8%, the viability, T/C [14] was 35% and the viability, T/C [15] was 22.1%. For the same compound, the viability, T/C [16] was 6.47%, the viability, T/C [17] was 2.05% and the viability, T/C [18] was 2.05%. It also gave a viability, T/C [19] of 38.1%, a viability, T/C [20] of 18.4% and a viability, T/C [21] of 15.9%. The viability, T/C [22] was 12.2%, the viability, T/C [23] was 1.05% and the viability, T/C [24] was 1.27%. The viability, T/C [25] was 18.5%, the viability, T/C [26] was 15.8% and the viability, T/C [27] was 11.6%. For the same compound, the viability, T/C [28] was 0.53%, the viability, T/C [29] was 0.36% and the viability, T/C [30] was 1.14%. The viability, T/C [31] was 16.5%, the viability, T/C [32] was 15.6% and the viability, T/C [33] was 20.6%. It also gave a viability, T/C [34] of 20.7%, a viability, T/C [35] of 0.34% and a viability, T/C [36] of 0.34%.

In the case of `Nc1ccn(C2OC(CO)C(O)C2(F)F)c(=O)n1` (stereo unspecified) + Cc1cnc(CNC(=O)c2c(=O)c3ccc(N4CCCN(C)CC4)nc3n3c2sc2ccccc23)cn1, the IC50 (second compound 0.0316 µM) is reported as 34.7 nM, the IC50 (second compound 0.1 µM) is reported as < 31.6 nM and the IC50 (second compound 0.316 µM) is reported as < 31.6 nM. For the same compound, the IC50 (second compound 1 µM) was < 31.6 nM, the IC50 (second compound 3.16 µM) was < 31.6 nM and the IC50 (second compound 10 µM) was < 31.6 nM. The viability, T/C [1] was 53.1%, the viability, T/C [2] was 20.4% and the viability, T/C [3] was 17.6%. For the same compound, the viability, T/C [4] was 11.2%, the viability, T/C [5] was 8.79% and the viability, T/C [6] was 6.85%. For the same compound, the viability, T/C [7] was 43.9%, the viability, T/C [8] was 39.9% and the viability, T/C [9] was 11.6%. The viability, T/C [10] was 15.9%, the viability, T/C [11] was 8.93% and the viability, T/C [12] was 7.45%. For the same compound, the viability, T/C [13] was 43.4%, the viability, T/C [14] was 19.6% and the viability, T/C [15] was 11.2%. For the same compound, the viability, T/C [16] was 8.54%, the viability, T/C [17] was 14.6% and the viability, T/C [18] was 8.2%. For the same compound, the viability, T/C [19] was 31.5%, the viability, T/C [20] was 21.2% and the viability, T/C [21] was 26.3%. It also gave a viability, T/C [22] of 6.79%, a viability, T/C [23] of 8.1% and a viability, T/C [24] of 7.55%. For the same compound, the viability, T/C [25] was 19%, the viability, T/C [26] was 17.5% and the viability, T/C [27] was 9.09%. The viability, T/C [28] was 7.43%, the viability, T/C [29] was 5.04% and the viability, T/C [30] was 5.88%. For the same compound, the viability, T/C [31] was 16.9%, the viability, T/C [32] was 24.9% and the viability, T/C [33] was 7%. For the same compound, the viability, T/C [34] was 8.35%, the viability, T/C [35] was 5.09% and the viability, T/C [36] was 8.27%.

In the case of `O=c1[nH]cc(F)c(=O)[nH]1` + Cc1cnc(CNC(=O)c2c(=O)c3ccc(N4CCCN(C)CC4)nc3n3c2sc2ccccc23)cn1, the IC50 (second compound 0.0316 µM) is reported as 2110 nM, the IC50 (second compound 0.1 µM) is reported as 1800 nM and the IC50 (second compound 0.316 µM) is reported as 526 nM. The IC50 (second compound 1 µM) was < 31.6 nM, the IC50 (second compound 3.16 µM) was < 31.6 nM and the IC50 (second compound 10 µM) was < 31.6 nM. It also gave a viability, T/C [1] of 101%, a viability, T/C [2] of 96.3% and a viability, T/C [3] of 103%. It also gave a viability, T/C [4] of 64.6%, a viability, T/C [5] of 44.3% and a viability, T/C [6] of 24.6%. For the same compound, the viability, T/C [7] was 68.2%, the viability, T/C [8] was 69.3% and the viability, T/C [9] was 60.9%. For the same compound, the viability, T/C [10] was 79.8%, the viability, T/C [11] was 31.3% and the viability, T/C [12] was 24.7%. For the same compound, the viability, T/C [13] was 51.8%, the viability, T/C [14] was 50.6% and the viability, T/C [15] was 71.5%. The viability, T/C [16] was 40%, the viability, T/C [17] was 34.7% and the viability, T/C [18] was 23.3%. For the same compound, the viability, T/C [19] was 35.2%, the viability, T/C [20] was 25.6% and the viability, T/C [21] was 31%. For the same compound, the viability, T/C [22] was 32.7%, the viability, T/C [23] was 23.6% and the viability, T/C [24] was 22.5%. For the same compound, the viability, T/C [25] was 31.2%, the viability, T/C [26] was 29.8% and the viability, T/C [27] was 25.6%. For the same compound, the viability, T/C [28] was 49.5%, the viability, T/C [29] was 22.6% and the viability, T/C [30] was 15.1%. For the same compound, the viability, T/C [31] was 21.4%, the viability, T/C [32] was 28% and the viability, T/C [33] was 14.6%. For the same compound, the viability, T/C [34] was 26.5%, the viability, T/C [35] was 25.7% and the viability, T/C [36] was 16.4%.
